Measured values reported in patent EP4603105A1, “PHARMACEUTICAL COMPOSITION CONTAINING CYCLIC COMPOUND HAVING SELECTIVE KRAS INHIBITORY EFFECT AGAINST HRAS AND NRAS” (CHUGAI SEIYAKU KABUSHIKI KAISHA, priority 2022, dated 2024).
Where a SMILES comes first, the peptide text is derived from it. Bridges are numbered along the chain shown (N, C = ends). [ ]: non-standard residue; d: D form. The star is where a group is joined. hPhe(3,5-F2-4-CF3) = N[C@@H](CCc1cc(F)c(C(F)(F)F)c(F)c1)C(=O)O; NPrPhe(4-CF3) = CCCN[C@@H](Cc1ccc(C(F)(F)F)cc1)C(=O)O; NMeGly(cPent) = CN[C@H](C(=O)O)C1CCCC1; αMeF = C[C@](N)(Cc1ccccc1)C(=O)O; NMeD = CN[C@@H](CC(=O)O)C(=O)O; NMeL = CN[C@@H](CC(C)C)C(=O)O; Morpholide = C1CN(*)CCO1; Aze = O=C(O)[C@@H]1CCN1; Sar = CNCC(=O)O

Legend:
HRAS wild-type protein = HRAS wild-type protein (Homo sapiens, UniProt P01112); experiment: Binding to HRAS by surface plasmon resonance (SPR), KD and KD ratio to KRAS
Chain of HRAS wild-type protein (P01112 whole entry): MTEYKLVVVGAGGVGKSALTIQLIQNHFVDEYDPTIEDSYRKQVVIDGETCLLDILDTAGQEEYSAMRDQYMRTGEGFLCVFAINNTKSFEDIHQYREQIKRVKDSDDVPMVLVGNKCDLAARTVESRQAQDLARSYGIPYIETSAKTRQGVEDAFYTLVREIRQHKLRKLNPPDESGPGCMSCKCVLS
How it was run: (§1)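 GDP-loaded biotinylated Avi-tag RAS proteins (E. coli-expressed) captured on a Biotin CAPture chip at ~100–300 RU; single-cycle kinetics at 30°C, 100 µL/min, 75 s injections of rising compound concentrations. HBS pH 7.4 running buffer with 1 mM DTT, 10 mM MgCl2, 10 µM GDP, 4% DMSO. KD from 1:1 binding fit.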

[1] = tested on: human lung cancer strain NCI-H441; assay type: cell-based
How it was run: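 Readout: […] after the ATP-based reagent. Compound: serial dilutions in dimethyl sulfoxide.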

[2] = molecular target: GDP-bound NRAS wild-type protein (Homo sapiens, UniProt P01111); experiment: Binding to NRAS by surface plasmon resonance (SPR), KD and KD ratio to KRAS
Chain of GDP-bound NRAS wild-type protein (P01111 whole entry): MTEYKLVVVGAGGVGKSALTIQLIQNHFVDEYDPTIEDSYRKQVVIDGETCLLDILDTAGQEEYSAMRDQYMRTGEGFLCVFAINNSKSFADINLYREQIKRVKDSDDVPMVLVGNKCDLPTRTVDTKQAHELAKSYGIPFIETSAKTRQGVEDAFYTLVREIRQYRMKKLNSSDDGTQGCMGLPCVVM
How it was run: as §1

[3] = molecular target: GDP-bound KRAS wild-type protein (Homo sapiens, UniProt P01116); experiment: Binding to KRAS by surface plasmon resonance (SPR), dissociation constant KD
Chain of GDP-bound KRAS wild-type protein (P01116 1-188 isoform P01116-2): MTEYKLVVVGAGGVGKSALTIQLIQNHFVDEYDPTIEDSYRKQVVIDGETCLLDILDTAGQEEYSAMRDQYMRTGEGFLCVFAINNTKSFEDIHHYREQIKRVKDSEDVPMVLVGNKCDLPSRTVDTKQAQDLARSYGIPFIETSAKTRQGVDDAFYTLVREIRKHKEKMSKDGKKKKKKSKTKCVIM
How it was run: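 Each cycle, GDP-bound biotin-Avi RAS was captured (~100–300 RU), compound concentrations were injected low to high for 75 s each at 100 µL/min, then the chip was regenerated. Buffer: HBS pH 7.4, 10 mM MgCl2, 10 µM GDP, 1 mM DTT, 4% DMSO; 30°C. KD from a 1:1 binding model.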

[4] = ratio of KD for HRAS wild-type protein to KD for KRAS
[5] = ratio of KD for GDP-bound NRAS wild-type protein to KD for KRAS
[6] = Single Cycle Kinetics, 1:1 binding model
[7] = ratio of KD value for HRAS wild-type protein to KD value for KRAS (SPR)
[8] = ratio of KD value for GDP-bound NRAS wild-type protein to KD value for KRAS (SPR)

`CCC[C@H]1C(=O)N[C@@H]([C@@H](C)CC)C(=O)N(C)CC(=O)N(C)[C@H]2C/C=C\CCN(C2=O)[C@@H](Cc2ccc(C)cc2)C(=O)N(C)CC(=O)N[C@@H](CCc2ccc(C(F)(F)F)c(OC)c2)C(=O)N2CC3(CC3)C[C@H]2C(=O)NC2(CC(C)(C)C2)C(=O)N(C)[C@@H](CC(C)(C)C)C(=O)N(C)[C@H](C(=O)N(C)C)CC(=O)N1C` [PP3009] was tested, and the “HRAS /KRAS” value (HRAS wild-type protein; [4]) was “A (a compound having 10 or more and less than 20 is denoted as A)”, the IC50 [1] was 7.7 nM and the “NRAS /KRAS” value [2, 5] was “A (a compound having 10 or more and less than 20 is denoted as A)”. For the same compound, the Kd ([3]; 1:1 binding model) was 0.073 nM.

In the case of `CCC(CC)[C@H]1C(=O)N(C)[C@H](C(=O)N(C)C)CC(=O)N(C)[C@@H](COC)C(=O)N[C@@H]([C@@H](C)CC)C(=O)N(C)CC(=O)N(C)[C@H]2C/C=C\CCN(C2=O)[C@@H](Cc2ccc(C)cc2)C(=O)N(C)CC(=O)N[C@@H](CCc2ccc(C(F)(F)F)c(OC)c2)C(=O)N2CCCCC[C@H]2C(=O)NC2(CC(C)(C)C2)C(=O)N1C` [PP2970], the “HRAS /KRAS” value (HRAS wild-type protein; [4]) is reported as “A (a compound having 10 or more and less than 20 is denoted as A)”, the IC50 [1] is reported as 23 nM and the “NRAS /KRAS” value [2, 5] is reported as “A (a compound having 10 or more and less than 20 is denoted as A)”. It also gave a Kd ([3]; 1:1 binding model) of 0.46 nM.

In the case of `CCO[C@@H]1C[C@H]2C(=O)NC3(CCC3)C(=O)N(C)[C@@H](C3CCCC3)C(=O)N(C)[C@H](C(=O)N3CCOCC3)CC(=O)N(C)[C@@H](CC(C)(C)C)C(=O)N[C@@H]([C@@H](C)CC)C(=O)N(C)CC(=O)N(C)[C@H]3CCCCCN(C3=O)[C@@H](Cc3ccc(C(F)(F)F)cc3)C(=O)N(C)CC(=O)N[C@@H](CCc3cc(F)c(C(F)(F)F)c(F)c3)C(=O)N2C1` [PP0684], the “HRAS /KRAS” value (HRAS wild-type protein; ratio of the KD value with respect to HRAS wild-type protein to the KD value with respect to KRAS) is reported as “B (a compound having 3 or more and less than 10 is denoted as B)”, the IC50 [1] is reported as 45 nM and the “NRAS /KRAS” value ([2]; ratio of the KD value with respect to GDP-bound NRAS wild-type protein to the KD value with respect to KRAS) is reported as “B (a compound having 3 or more and less than 10 is denoted as B)”. For the same compound, the Kd [3, 6] was 1.1 nM.

For `CCCN1C(=O)CN(C)C(=O)[C@@H]2CCN2C(=O)[C@H]([C@@H](C)CC)NC(=O)[C@H](CC(C)C)N(C)C(=O)C[C@@H](C(=O)N2CCOCC2)N(C)C(=O)[C@H](C2CCCC2)N(C)C(=O)[C@](C)(Cc2ccccc2)NC(=O)[C@@H]2CCCN2C(=O)[C@H](CCc2cc(F)c(C(F)(F)F)c(F)c2)NC(=O)CN(C)C(=O)[C@@H]1Cc1ccc(C(F)(F)F)cc1` [PP0778] ([NMeL]I[Aze][Sar][NPrPhe(4-CF3)][Sar][hPhe(3,5-F2-4-CF3)]P[αMeF][NMeGly(cPent)][NMeD]-Morpholide; lactam N-11), the “HRAS /KRAS” value (HRAS wild-type protein; [4]) was “B (a compound having 3 or more and less than 10 is denoted as B)”, the IC50 [1] was 546 nM and the “NRAS /KRAS” value [2, 5] was “B (a compound having 3 or more and less than 10 is denoted as B)”. For the same compound, the Kd ([3]; Single Cycle Kinetics) was 10 nM.

For `CCO[C@@H]1C[C@H]2C(=O)NC3(CCC3)C(=O)N(C)[C@@H](C3CCCC3)C(=O)N(C)[C@H](C)CC(=O)N(C)[C@@H](CC(C)C)C(=O)N[C@@H]([C@@H](C)CC)C(=O)N(C)CC(=O)N(C)[C@H]3C/C=C\CCN(C3=O)[C@@H](Cc3ccc(F)cc3)C(=O)N(C)CC(=O)N[C@@H](CCc3cc(F)c(C(F)(F)F)c(F)c3)C(=O)N2C1` [PP1494], the “HRAS /KRAS” value (HRAS wild-type protein; [7]) was “B (a compound having 3 or more and less than 10 is denoted as B)”, the IC50 [1] was 142 nM and the “NRAS /KRAS” value [2, 8] was “B (a compound having 3 or more and less than 10 is denoted as B)”. For the same compound, the Kd [3, 6] was 0.58 nM.

`CCC[C@H]1C(=O)N[C@@H]([C@@H](C)CC)C(=O)N(C)CC(=O)N(C)[C@H]2C/C=C\CCN(C2=O)[C@@H](Cc2ccc(C)cc2)C(=O)N(C)CC(=O)N[C@@H](CCc2ccc(C(F)(F)F)c(OC)c2)C(=O)N2C[C@@H](C)C[C@H]2C(=O)NC2(CCC2)C(=O)N(C)[C@@H](C2CCCC2)C(=O)N(C)[C@H](C(=O)N(C)C)CC(=O)N1C` [PP1857] was tested, and the “HRAS /KRAS” value (HRAS wild-type protein; [7]) was “B (a compound having 3 or more and less than 10 is denoted as B)”, the IC50 [1] was 5 nM and the “NRAS /KRAS” value [2, 8] was “A (a compound having 10 or more and less than 20 is denoted as A)”. The Kd [3, 6] was 0.091 nM.

For `CCO[C@@H]1C[C@H]2C(=O)NC3(CC(C)(C)C3)C(=O)N(C)[C@@H](C3CCCC3)C(=O)N(C)[C@H](C(=O)N(C)CC)CC(=O)N(C)[C@@H](CC(C)C)C(=O)N[C@@H]([C@@H](C)CC)C(=O)N(C)CC(=O)N(C)[C@H]3C/C=C\CCN(C3=O)[C@@H](Cc3ccc(C(F)F)cc3)C(=O)N(C)CC(=O)N[C@@H](CCc3ccc(C4CC4)c(F)c3)C(=O)N2C1` [PP3154], the “HRAS /KRAS” value (HRAS wild-type protein; [4]) was “A (a compound having 10 or more and less than 20 is denoted as A)”, the IC50 [1] was 26.2 nM and the “NRAS /KRAS” value [2, 5] was “A (a compound having 10 or more and less than 20 is denoted as A)”. For the same compound, the Kd ([3]; 1:1 binding model) was 0.53 nM.
